From ChEMBL document CHEMBL5653615 (J Biol Chem, 2013)

Key:
[1] = biological target: Homeodomain-interacting protein kinase 3 (Homo sapiens) (UniProt Q9H422); experiment: Inhibition of human HIPK3 at 500 nM by HotSpot assay relative to control
[2] = biological target: T1, Serine/threonine-protein kinase BRSK2 (Homo sapiens) (UniProt Q8IWQ3); experiment: Inhibition of human BRSK2 at 500 nM by HotSpot assay relative to control
T1 sequence (whole entry): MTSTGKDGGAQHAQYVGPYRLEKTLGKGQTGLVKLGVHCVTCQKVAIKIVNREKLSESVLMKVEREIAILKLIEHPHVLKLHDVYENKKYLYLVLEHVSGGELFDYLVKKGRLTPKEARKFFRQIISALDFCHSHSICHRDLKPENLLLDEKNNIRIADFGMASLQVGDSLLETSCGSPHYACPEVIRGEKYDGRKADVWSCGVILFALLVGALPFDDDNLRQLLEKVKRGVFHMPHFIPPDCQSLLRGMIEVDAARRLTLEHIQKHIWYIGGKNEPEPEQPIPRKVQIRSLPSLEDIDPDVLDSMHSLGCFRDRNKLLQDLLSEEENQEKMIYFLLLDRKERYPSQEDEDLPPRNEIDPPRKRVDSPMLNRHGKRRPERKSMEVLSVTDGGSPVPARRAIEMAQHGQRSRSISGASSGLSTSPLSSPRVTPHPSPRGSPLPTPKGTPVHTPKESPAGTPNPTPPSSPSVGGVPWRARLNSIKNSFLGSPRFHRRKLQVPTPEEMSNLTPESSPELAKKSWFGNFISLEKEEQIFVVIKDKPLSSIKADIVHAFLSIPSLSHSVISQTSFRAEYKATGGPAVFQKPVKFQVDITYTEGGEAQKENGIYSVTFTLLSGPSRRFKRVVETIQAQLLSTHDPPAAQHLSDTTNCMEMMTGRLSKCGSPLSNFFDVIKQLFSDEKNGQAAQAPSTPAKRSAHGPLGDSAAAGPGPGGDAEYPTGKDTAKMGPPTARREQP

[3] = biological target: Epidermal growth factor receptor (Homo sapiens) (UniProt P00533); experiment: Inhibition of human EGFR at 500 nM by HotSpot assay relative to control
[4] = biological target: Fibroblast growth factor receptor 1 (Homo sapiens) (UniProt P11362); experiment: Inhibition of human FGFR1 at 500 nM by HotSpot assay relative to control
[5] = biological target: Calcium/calmodulin-dependent protein kinase type 1D (Homo sapiens) (UniProt Q8IU85); experiment: Inhibition of human CAMK1d at 500 nM by HotSpot assay relative to control
[6] = biological target: T2, Activin receptor type-1 (Homo sapiens) (UniProt Q04771); experiment: Inhibition of human ALK2 at 500 nM by HotSpot assay relative to control
T2 sequence (whole entry): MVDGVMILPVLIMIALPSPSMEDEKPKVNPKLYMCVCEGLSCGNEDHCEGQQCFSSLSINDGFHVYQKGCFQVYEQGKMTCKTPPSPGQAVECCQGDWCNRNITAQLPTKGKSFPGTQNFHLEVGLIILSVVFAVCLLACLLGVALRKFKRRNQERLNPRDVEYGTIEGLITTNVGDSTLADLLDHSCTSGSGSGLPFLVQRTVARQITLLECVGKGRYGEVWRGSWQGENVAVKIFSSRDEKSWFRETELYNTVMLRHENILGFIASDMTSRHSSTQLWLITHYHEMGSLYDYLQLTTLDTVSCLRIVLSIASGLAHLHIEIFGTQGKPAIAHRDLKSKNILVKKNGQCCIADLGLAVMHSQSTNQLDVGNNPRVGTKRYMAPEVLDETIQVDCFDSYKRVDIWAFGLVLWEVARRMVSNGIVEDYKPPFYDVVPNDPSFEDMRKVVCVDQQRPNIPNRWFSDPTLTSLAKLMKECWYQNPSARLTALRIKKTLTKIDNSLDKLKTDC

[7] = biological target: Mitogen-activated protein kinase 11 (Homo sapiens) (UniProt Q15759); experiment: Inhibition of human MAPK11 at 500 nM by HotSpot assay relative to control
[8] = biological target: Dual specificity tyrosine-phosphorylation-regulated kinase 1B (Homo sapiens) (UniProt Q9Y463); experiment: Inhibition of human DYRK1B at 500 nM by HotSpot assay relative to control
[9] = biological target: T3, Muscle, skeletal receptor tyrosine-protein kinase (Homo sapiens) (UniProt O15146); experiment: Inhibition of human MUSK at 500 nM by HotSpot assay relative to control
T3 sequence (whole entry): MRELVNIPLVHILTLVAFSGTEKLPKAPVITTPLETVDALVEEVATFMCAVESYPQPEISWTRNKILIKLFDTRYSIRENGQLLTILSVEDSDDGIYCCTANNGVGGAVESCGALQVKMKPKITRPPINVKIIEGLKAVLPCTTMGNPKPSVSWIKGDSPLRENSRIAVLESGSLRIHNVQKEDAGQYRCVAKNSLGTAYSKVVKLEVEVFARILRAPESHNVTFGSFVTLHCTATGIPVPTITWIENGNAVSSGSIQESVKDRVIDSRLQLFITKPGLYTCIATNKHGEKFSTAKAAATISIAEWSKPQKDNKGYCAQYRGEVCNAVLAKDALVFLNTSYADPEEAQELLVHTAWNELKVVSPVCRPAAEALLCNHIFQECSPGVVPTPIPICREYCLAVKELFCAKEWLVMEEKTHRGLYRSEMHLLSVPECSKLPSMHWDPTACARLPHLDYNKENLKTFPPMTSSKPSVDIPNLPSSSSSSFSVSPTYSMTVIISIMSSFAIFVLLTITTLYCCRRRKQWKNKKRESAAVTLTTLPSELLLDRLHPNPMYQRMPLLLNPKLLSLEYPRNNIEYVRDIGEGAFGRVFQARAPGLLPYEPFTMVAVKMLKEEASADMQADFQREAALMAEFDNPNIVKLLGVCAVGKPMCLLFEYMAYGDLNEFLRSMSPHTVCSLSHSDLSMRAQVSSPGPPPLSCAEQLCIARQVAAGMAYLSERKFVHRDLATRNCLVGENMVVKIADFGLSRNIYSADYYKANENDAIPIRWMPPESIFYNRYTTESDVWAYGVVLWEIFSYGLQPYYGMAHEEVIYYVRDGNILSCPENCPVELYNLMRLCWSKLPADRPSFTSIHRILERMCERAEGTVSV

[10] = biological target: CDK6/cyclin D3 (Homo sapiens) (UniProt P30281+Q00534); experiment: Inhibition of human CDK6/cyclin D3 at 500 nM by HotSpot assay relative to control; format: protein-complex assay
[11] = biological target: Aurora kinase B (Homo sapiens) (UniProt Q96GD4); experiment: Inhibition of human Aurora B at 500 nM by HotSpot assay relative to control
Aurora kinase B (Homo sapiens), sequence (Q96GD4 whole entry): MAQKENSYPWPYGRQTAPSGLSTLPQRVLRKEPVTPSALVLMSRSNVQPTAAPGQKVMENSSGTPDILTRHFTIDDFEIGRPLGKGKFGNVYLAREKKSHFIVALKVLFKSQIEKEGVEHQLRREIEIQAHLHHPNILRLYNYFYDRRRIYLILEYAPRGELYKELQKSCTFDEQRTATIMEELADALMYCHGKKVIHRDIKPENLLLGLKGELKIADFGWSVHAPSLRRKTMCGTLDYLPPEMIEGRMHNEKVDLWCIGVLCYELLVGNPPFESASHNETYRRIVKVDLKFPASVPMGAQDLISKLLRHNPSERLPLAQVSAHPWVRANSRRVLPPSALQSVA

Homeodomain-interacting protein kinase 3 (Homo sapiens), sequence (Q9H422 whole entry, looked up): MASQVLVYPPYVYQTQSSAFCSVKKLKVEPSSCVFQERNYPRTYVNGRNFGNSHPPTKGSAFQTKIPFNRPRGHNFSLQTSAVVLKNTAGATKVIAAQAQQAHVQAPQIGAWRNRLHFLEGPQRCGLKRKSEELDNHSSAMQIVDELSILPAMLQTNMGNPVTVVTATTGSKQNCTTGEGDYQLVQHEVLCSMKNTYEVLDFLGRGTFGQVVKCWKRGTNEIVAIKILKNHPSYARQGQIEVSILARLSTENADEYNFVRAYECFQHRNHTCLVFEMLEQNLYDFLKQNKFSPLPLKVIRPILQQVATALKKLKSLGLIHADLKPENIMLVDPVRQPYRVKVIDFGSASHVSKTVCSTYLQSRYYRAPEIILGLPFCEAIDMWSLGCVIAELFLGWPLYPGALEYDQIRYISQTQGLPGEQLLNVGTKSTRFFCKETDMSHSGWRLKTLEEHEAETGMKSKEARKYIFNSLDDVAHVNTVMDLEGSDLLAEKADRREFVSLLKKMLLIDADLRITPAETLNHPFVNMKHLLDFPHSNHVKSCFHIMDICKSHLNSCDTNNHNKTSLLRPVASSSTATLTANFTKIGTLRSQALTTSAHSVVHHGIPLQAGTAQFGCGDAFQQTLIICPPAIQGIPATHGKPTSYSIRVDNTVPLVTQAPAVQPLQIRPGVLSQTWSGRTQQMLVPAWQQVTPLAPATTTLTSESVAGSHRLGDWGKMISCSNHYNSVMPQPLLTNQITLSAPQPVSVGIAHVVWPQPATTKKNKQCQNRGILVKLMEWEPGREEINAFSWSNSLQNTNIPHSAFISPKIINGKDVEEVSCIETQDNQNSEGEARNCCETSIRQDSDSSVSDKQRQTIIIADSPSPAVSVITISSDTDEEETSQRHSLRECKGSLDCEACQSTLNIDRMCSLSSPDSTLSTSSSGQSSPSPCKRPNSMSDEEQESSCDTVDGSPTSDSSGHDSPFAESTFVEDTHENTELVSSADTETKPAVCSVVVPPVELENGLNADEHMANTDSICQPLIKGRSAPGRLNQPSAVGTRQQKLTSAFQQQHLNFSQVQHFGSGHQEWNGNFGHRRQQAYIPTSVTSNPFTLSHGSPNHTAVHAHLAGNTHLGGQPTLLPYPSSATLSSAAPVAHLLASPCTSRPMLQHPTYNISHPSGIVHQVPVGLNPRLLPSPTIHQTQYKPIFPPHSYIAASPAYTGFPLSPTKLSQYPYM
Calcium/calmodulin-dependent protein kinase type 1D (Homo sapiens), sequence (Q8IU85 whole entry, looked up): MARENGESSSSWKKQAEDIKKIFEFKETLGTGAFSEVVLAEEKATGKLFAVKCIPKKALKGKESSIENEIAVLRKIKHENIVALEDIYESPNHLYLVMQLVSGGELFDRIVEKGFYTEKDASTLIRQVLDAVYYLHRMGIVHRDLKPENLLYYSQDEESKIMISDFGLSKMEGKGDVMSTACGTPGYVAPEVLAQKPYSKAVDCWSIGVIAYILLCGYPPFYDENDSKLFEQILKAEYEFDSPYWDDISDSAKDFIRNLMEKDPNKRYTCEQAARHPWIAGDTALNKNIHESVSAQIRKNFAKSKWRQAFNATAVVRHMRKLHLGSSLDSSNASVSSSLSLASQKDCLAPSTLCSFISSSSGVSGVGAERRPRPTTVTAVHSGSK
Fibroblast growth factor receptor 1 (Homo sapiens), sequence (P11362 22-822 limits assumed): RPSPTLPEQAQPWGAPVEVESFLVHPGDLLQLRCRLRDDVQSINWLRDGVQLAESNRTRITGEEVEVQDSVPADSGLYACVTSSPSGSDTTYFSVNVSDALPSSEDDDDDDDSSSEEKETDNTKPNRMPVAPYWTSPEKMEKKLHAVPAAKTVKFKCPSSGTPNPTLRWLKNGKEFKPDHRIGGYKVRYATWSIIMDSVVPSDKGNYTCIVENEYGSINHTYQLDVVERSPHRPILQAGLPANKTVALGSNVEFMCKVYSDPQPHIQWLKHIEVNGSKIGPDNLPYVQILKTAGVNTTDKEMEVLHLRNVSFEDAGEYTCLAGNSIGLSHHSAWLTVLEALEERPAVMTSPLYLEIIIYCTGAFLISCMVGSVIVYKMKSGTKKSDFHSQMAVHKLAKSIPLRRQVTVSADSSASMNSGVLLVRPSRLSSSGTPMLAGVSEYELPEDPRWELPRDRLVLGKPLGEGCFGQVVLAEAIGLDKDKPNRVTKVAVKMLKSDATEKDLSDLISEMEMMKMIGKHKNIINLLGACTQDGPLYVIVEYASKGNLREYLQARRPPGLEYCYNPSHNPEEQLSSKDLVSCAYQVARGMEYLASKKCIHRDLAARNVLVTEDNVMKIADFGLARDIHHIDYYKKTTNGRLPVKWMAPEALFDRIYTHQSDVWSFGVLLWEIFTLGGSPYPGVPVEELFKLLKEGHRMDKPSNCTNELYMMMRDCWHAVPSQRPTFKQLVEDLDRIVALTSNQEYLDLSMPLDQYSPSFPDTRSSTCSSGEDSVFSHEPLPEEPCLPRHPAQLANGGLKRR
Mitogen-activated protein kinase 11 (Homo sapiens), sequence (Q15759 whole entry): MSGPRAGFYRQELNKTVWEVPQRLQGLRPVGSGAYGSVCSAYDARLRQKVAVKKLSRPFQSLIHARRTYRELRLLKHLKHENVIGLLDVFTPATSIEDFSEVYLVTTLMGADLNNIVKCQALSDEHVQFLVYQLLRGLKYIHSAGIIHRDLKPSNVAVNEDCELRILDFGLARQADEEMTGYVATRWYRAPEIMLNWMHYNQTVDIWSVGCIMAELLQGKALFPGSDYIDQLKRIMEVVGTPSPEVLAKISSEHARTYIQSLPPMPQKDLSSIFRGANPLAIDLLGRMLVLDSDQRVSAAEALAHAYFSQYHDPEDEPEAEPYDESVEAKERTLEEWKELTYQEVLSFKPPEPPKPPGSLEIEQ
Dual specificity tyrosine-phosphorylation-regulated kinase 1B (Homo sapiens), sequence (Q9Y463 whole entry, looked up): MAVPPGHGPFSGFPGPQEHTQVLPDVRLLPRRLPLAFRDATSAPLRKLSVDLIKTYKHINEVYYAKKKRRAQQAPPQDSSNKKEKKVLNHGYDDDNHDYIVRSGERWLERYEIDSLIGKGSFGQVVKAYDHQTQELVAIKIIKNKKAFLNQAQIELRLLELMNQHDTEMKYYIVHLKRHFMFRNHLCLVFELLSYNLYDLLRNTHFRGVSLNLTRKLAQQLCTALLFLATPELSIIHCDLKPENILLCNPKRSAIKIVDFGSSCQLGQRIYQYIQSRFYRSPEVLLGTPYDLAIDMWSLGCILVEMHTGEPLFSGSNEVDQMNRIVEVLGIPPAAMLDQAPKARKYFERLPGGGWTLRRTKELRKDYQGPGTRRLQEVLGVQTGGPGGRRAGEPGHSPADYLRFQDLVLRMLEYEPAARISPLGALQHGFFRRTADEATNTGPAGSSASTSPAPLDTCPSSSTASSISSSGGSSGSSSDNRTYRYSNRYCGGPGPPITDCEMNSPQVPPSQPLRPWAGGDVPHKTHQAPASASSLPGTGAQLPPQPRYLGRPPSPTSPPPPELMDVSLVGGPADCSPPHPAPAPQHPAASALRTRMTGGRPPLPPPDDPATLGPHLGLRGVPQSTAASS
Epidermal growth factor receptor (Homo sapiens), sequence (P00533 whole entry): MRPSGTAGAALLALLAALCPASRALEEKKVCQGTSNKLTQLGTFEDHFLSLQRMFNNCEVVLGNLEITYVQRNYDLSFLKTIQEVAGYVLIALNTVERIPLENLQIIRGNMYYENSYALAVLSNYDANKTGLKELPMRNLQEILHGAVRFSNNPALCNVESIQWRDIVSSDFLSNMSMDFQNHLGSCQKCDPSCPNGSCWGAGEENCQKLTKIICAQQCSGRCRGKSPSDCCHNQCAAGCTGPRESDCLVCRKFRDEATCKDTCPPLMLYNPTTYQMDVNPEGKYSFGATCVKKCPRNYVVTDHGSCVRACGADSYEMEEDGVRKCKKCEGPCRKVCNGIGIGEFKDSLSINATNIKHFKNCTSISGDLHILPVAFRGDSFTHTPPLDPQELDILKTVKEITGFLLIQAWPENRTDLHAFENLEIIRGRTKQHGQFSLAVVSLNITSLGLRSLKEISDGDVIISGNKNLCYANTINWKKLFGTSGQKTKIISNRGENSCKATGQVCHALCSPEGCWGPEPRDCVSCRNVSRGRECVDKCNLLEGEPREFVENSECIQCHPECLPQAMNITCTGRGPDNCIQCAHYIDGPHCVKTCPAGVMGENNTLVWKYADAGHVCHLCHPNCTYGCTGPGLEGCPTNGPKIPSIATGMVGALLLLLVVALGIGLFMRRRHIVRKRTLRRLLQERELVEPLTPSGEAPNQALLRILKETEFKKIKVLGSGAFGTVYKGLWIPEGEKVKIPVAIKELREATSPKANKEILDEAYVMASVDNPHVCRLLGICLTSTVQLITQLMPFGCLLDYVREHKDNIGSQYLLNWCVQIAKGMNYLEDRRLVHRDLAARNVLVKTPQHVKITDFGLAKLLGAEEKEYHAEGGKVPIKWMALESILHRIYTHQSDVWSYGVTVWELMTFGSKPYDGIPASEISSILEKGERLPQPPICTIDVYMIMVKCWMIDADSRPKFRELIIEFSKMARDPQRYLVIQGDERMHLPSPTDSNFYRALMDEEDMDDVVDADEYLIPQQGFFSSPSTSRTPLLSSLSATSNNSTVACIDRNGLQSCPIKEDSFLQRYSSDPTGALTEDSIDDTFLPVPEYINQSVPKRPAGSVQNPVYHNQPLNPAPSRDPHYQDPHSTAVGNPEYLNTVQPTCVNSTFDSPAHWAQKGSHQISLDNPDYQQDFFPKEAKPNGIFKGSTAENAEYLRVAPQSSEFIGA

| SMILES | inhibition [1] [%] | inhibition [2] [%] | inhibition [3] [%] | inhibition [4] [%] | inhibition [5] [%] | inhibition [6] [%] | inhibition [7] [%] | inhibition [8] [%] | inhibition [9] [%] | inhibition [10] [%] | inhibition [11] [%] |
| --- | --- | --- | --- | --- | --- | --- | --- | --- | --- | --- | --- |
| Oc1n[nH]c2nnc(-c3c(-c4ccccc4)nn4ccccc34)cc12 | -0.3 | 1.23 | 10 | -1.96 | -3.04 | 0.23 | 5.77 | -1.78 | 3.28 | 1.59 | 2.45 |
| Nc1n[nH]c2nnc(-c3c(-c4ccccc4)nn4ccccc34)cc12 | -3.93 | 3.92 | 16.1 | 5.28 | 4.06 | -7.19 | 10 | -0.86 | 3.22 | 9.56 | 3.24 |
